The subject of experiment [1] is Staphylococcus epidermidis. Kind of experiment: Antimicrobial activity against methicillin-resistant Staphylococcus epidermidis isolate 458/11 after 18 hrs by twofold serial broth dilution method. In kind it is functional. As to conditions: isolate 458/11, 18 h.
In experiment [2] the test system is Staphylococcus epidermidis. Kind of experiment: Bactericidal activity against methicillin-resistant Staphylococcus epidermidis isolate 470/11 after 24 hrs. Format: functional. Particulars: isolate 470/11, 24 h, read-out: MBC99.9.
Experiment [3] relates to Staphylococcus epidermidis. Kind of experiment: Inhibition of Staphylococcus epidermidis isolate 407/10 biofilm formation at 1 to 32 ug/ml after 24 hrs by MTT assay. In kind it is functional, organism-based. (Formazan colour is commonly taken as a measure of viable cells.)
In experiment [4] the test system is Staphylococcus aureus. Kind of experiment: Antimicrobial activity against Staphylococcus aureus NCTC 4163 after 18 hrs by twofold serial broth dilution method. Format: functional. Particulars: NCTC 4163, 18 h.
Experiment [5] concerns Pseudomonas aeruginosa. Kind of experiment: Bactericidal activity against Pseudomonas aeruginosa NCTC 6749 after 24 hrs. Format: functional. As to conditions: NCTC 6749, 24 h, read-out: MBC99.9.
Experiment [6] concerns Staphylococcus epidermidis. Kind of experiment: Bactericidal activity against methicillin-resistant Staphylococcus epidermidis isolate 407/10 after 24 hrs. In kind it is functional. As to conditions: isolate 407/10, 24 h, read-out: MBC99.9.
For experiment [7], the system named is Staphylococcus epidermidis. Kind of experiment: Antimicrobial activity against methicillin-resistant Staphylococcus epidermidis isolate 407/10 after 18 hrs by twofold serial broth dilution method. In kind it is functional. As to conditions: isolate 407/10, 18 h.
In experiment [8] the test system is Staphylococcus epidermidis. Kind of experiment: Bactericidal activity against methicillin-resistant Staphylococcus epidermidis isolate 458/11 after 24 hrs. Format: functional. Particulars: isolate 458/11, 24 h, read-out: MBC99.9.
Experiment [9] concerns Staphylococcus epidermidis. Kind of experiment: Antimicrobial activity against Staphylococcus epidermidis ATCC 12228 after 18 hrs by twofold serial broth dilution method. Format: functional. Particulars: ATCC 12228, 18 h. (In general: Dilution methods test growth across graded concentrations, often in twofold steps.)
Experiment [10] deals with Staphylococcus epidermidis. Kind of experiment: Inhibition of Staphylococcus epidermidis ATCC 35984 biofilm formation at 1 to 32 ug/ml after 24 hrs by MTT assay. Format: functional, organism-based.
Experiment [11] relates to Staphylococcus epidermidis. Kind of experiment: Bactericidal activity against methicillin-resistant Staphylococcus epidermidis isolate 457/11 after 24 hrs. Format: functional. Particulars: isolate 457/11, 24 h, read-out: MBC99.9.
The subject of experiment [12] is Staphylococcus epidermidis. Kind of experiment: Inhibition of Staphylococcus epidermidis ATCC 12228 biofilm formation at 1 to 32 ug/ml after 24 hrs by MTT assay. In kind it is functional, organism-based.
In experiment [13] the test system is Staphylococcus epidermidis. Kind of experiment: Bactericidal activity against Staphylococcus epidermidis ATCC 12228 after 24 hrs. Format: functional. Particulars: ATCC 12228, 24 h, read-out: MBC99.9.
The subject of experiment [14] is Staphylococcus epidermidis. Kind of experiment: Bactericidal activity against methicillin-resistant Staphylococcus epidermidis isolate 459/11 after 24 hrs. Particulars: isolate 459/11, 24 h, read-out: MBC99.9. Format: functional.
Experiment [15] has as its system Staphylococcus epidermidis. Kind of experiment: Inhibition of Staphylococcus epidermidis isolate 409/10 biofilm formation at 1 to 32 ug/ml after 24 hrs by MTT assay. In kind it is functional, organism-based.
For experiment [16], the system named is Staphylococcus epidermidis. Kind of experiment: Antimicrobial activity against methicillin-resistant Staphylococcus epidermidis isolate 460/11 after 18 hrs by twofold serial broth dilution method. In kind it is functional. Particulars: isolate 460/11, 18 h.
The test system of experiment [17] is Staphylococcus epidermidis. Kind of experiment: Inhibition of Staphylococcus epidermidis isolate 469/11 biofilm formation at 1 to 32 ug/ml after 24 hrs by MTT assay. Format: functional, organism-based.
The subject of experiment [18] is Staphylococcus epidermidis. Kind of experiment: Bactericidal activity against methicillin-resistant Staphylococcus epidermidis isolate 461/11 after 24 hrs. In kind it is functional. As to conditions: isolate 461/11, 24 h, read-out: MBC99.9.
In experiment [19] the test system is Staphylococcus epidermidis. Kind of experiment: Inhibition of Staphylococcus epidermidis isolate 461/11 biofilm formation at 1 to 32 ug/ml after 24 hrs by MTT assay. In kind it is functional, organism-based.
The subject of experiment [20] is Staphylococcus aureus. Kind of experiment: Bactericidal activity against Staphylococcus aureus NCTC 4163 after 24 hrs. In kind it is functional. Particulars: NCTC 4163, 24 h, read-out: MBC99.9.

The values that follow come from ChEMBL document CHEMBL3400015, “Tertiary amides of Salinomycin: A new group of antibacterial agents against Bacillus anthracis and methicillin-resistant Staphylococcus epidermidis” (Bioorg Med Chem Lett, 2015).

≈ marks a conversion by molar mass, not a printed value. Calls of active or inactive are those of the source.

Broadly, the MIC is the smallest concentration in the dilution series that meets the test's criterion for growth inhibition. A high value points to a less susceptible organism. On to `O=C(O)c1cn(C2CC2)c2cc(N3CCNCC3)c(F)cc2c1=O` [CIPROFLOXACIN], for which the MIC was determined as 32 µg/mL (≈ 96.6 µM) in experiment [1]; 0.25 µg/mL (≈ 0.754 µM) in [4]; 64 µg/mL (≈ 193 µM) in experiment [7]; 0.25 µg/mL (≈ 0.754 µM) in [9]; 0.125 µg/mL (≈ 0.377 µM) in [16]. Besides, the MBC in [2] is 0.5 µg/mL (≈ 1.51 µM); in [5], 0.125 µg/mL (≈ 0.377 µM); in [6], greater than 256 µg/mL; in experiment [8], greater than 256 µg/mL; in [11], greater than 256 µg/mL; in [13], 1 µg/mL (≈ 3.02 µM). Moreover, the MBC is greater than 256 µg/mL in experiment [14], 1 µg/mL (≈ 3.02 µM) in experiment [18] and 0.5 µg/mL (≈ 1.51 µM) in experiment [20]. Besides, the inhibition result in [3], in [10], in [12], in experiment [15], in experiment [17] and in experiment [19] was “Active” throughout.
